Measured values reported in patent US9763957B2, “Autotaxin inhibitors” (Novartis AG, priority 2013, dated 2017).

Biological target: Recombinant human ATX (Homo sapiens (Human), UniProt Q13822)
Assay: ATX inhibition assay (choline release, Amplex Red fluorescence)
Assay type: biochemical
Conditions: ATX 10 nM, LPC 18:1 10 μM, 37° C., 20 min pre-incubation; mean of n≧2
Experimental: Reagents—LPC (oleoyl (18:1)) was purchased from Avanti Polar Lipids (Alabaster, Ala.) and solubilized in methanol to 20 mM. Amplex Red was obtained from Invitrogen Life Technologies (Paisley, UK) and dissolved in DMSO to 10 mM. Choline oxidase and horseradish peroxidase (HRP) were obtained from Sigma Aldrich (Dorset, UK) and dissolved in HBSS to 20 U/ml and 200 U/ml respectively. All reagents were stored at −20° C. in single use aliquots. All experimental measurements were performed in assay buffer made up immediately prior to use (HBSS, 0.01% BSA essentially fatty acid free).
PerkinElmer EnVision (Fluorescence Intensity/Absorbance Monochromator) or Tecan Infinite 200 PRO series plate reader was used to detect change in fluorescent intensity.
Assessing ATX inhibition—ATX activity was determined by measurement of released choline in reactions containing ATX (10 nM), choline oxidase (0.1 U/ml), HRP (100 U/ml), amplex red (50 μM) and LPC 18:1 (10 μM). Compounds of the invention were prepared as 10 point serial dilutions from 1 μM in duplicate and pre-incubated with ATX at 37° C. for 20 minutes prior to the addition of remaining reagents. The liberated choline was measured from changes in fluorescence intensity (λex 530 nm, λem 590 nm) of the product resurofin at 37° C. every 2 minutes over a 40-minute period. ATX activity was measured as a slope of the linear portion of the progress curve, typically between 14 to 24 minutes.
Data analysis—Slope data was exported to Graphpad prism (Graphpad software, San Diego, Calif.) where data was fitted to equation 1. Y=Bottom+(Top-Bottom)/(1+10^((Log IC50−X)*HillSlope)) Equation 1: […]

IC50 [nM]	SMILES
28	Cc1noc(C2CCCCN2C(=O)/C=C/c2ccc(Cl)cc2Cn2nnc(C)n2)n1 (racemic) [Example 23, (rac)-(E)-3-(4-Chloro-2-((5-methyl-2H-tetrazol-2-yl)methyl)phenyl)-1-(2-(3-methyl-1,2,4-oxadiazol-5-yl)piperidin-1-yl)prop-2-en-1-one]
11	Cc1nnn(Cc2cc(Cl)ccc2/C=C/C(=O)N2CCCCC2c2nc(C(C)C)no2)n1 (racemic) [Example 30, (rac)-(E)-3-(4-Chloro-2-((5-methyl-2H-tetrazol-2-yl)methyl)phenyl)-1-(2-(3-isopropyl-1,2,4-oxadiazol-5-yl)piperidin-1-yl)prop-2-en-1-one]
29	Cc1nnn(Cc2cc(Cl)ccc2/C=C/C(=O)N2CCCC(c3nc(C(C)C)no3)C2)n1 (racemic) [Example 34, (rac)-(E)-3-(4-Chloro-2-((5-methyl-2H-tetrazol-2-yl)methyl)phenyl)-1-(3-(3-isopropyl-1,2,4-oxadiazol-5-yl)piperidin-1-yl)prop-2-en-1-one]
6	Cc1nnn(Cc2cc(Cl)ccc2/C=C/C(=O)N2CCC(C(O)c3ccc(Cl)cc3)CC2)n1 (racemic) [Example 66, rac-(E)-3-(4-Chloro-2-((5-methyl-2H-tetrazol-2-yl)methyl)phenyl)-1-(4-((4-chlorophenyl)(hydroxy)methyl)piperidin-1-yl)prop-2-en-1-one]
3.5	Cc1noc(C2CCCCN2C(=O)/C=C/c2ccc(C(F)(F)F)cc2Cn2nnc(C)n2)n1 (single isomer, unassigned) [Example 5a, (R,E)-1-(2-(3-methyl-1,2,4-oxadiazol-5-yl)piperidin-1-yl)-3-(2-((5-methyl-2H-tetrazol-2-yl)methyl)-4-(trifluoromethyl)phenyl)prop-2-en-1-one or (S,E)-1-(2-(3-methyl-1,2,4-oxadiazol-5-yl)piperidin-1-yl)-3-(2-((5-methyl-2H-tetrazol-2-yl)methyl)-4-(trifluoromethyl)phenyl)prop-2-en-1-one]
120	Cc1noc(C2CCCCN2C(=O)/C=C/c2ccc(C(F)(F)F)cc2Cn2nnc(C)n2)n1 (single isomer, unassigned) [Example 5b, (R,E)-1-(2-(3-methyl-1,2,4-oxadiazol-5-yl)piperidin-1-yl)-3-(2-((5-methyl-2H-tetrazol-2-yl)methyl)-4-(trifluoromethyl)phenyl)prop-2-en-1-one or (S,E)-1-(2-(3-methyl-1,2,4-oxadiazol-5-yl)piperidin-1-yl)-3-(2-((5-methyl-2H-tetrazol-2-yl)methyl)-4-(trifluoromethyl)phenyl)prop-2-en-1-one]
9.5	Cc1noc(C2CCCCN2C(=O)/C=C/c2ccc(Cl)cc2Cn2nnc(C)n2)n1 (single isomer, unassigned) [Example 23a, (R)- or (S)-(E)-3-(4-Chloro-2-((5-methyl-2H-tetrazol-2-yl)methyl)phenyl)-1-(2-(3-methyl-1,2,4-oxadiazol-5-yl)piperidin-1-yl)prop-2-en-1-one]
4.9	Cc1nnn(Cc2cc(Cl)ccc2/C=C/C(=O)N2CCCCC2c2nc(C(C)C)no2)n1 (single isomer, unassigned) [Example 30a, (R or S, E)-3-(4-Chloro-2-((5-methyl-2H-tetrazol-2-yl)methyl)phenyl)-1-(2-(3-isopropyl-1,2,4-oxadiazol-5-yl)piperidin-1-yl)prop-2-en-1-one]
100	Cc1nnn(Cc2cc(Cl)ccc2/C=C/C(=O)N2CCCCC2c2nc(C(C)C)no2)n1 (single isomer, unassigned) [Example 30b, (R or S, E)-3-(4-chloro-2-((5-methyl-2H-tetrazol-2-yl)methyl)phenyl)-1-(2-(3-isopropyl-1,2,4-oxadiazol-5-yl)piperidin-1-yl)prop-2-en-1-one]
18	Cc1nnn(Cc2cc(Cl)ccc2/C=C/C(=O)N2CCCC(c3nc(C(C)C)no3)C2)n1 (single isomer, unassigned) [Example 34a, (R or S, E)-3-(4-Chloro-2-((5-methyl-2H-tetrazol-2-yl)methyl)phenyl)-1-(3-(3-isopropyl-1,2,4-oxadiazol-5-yl)piperidin-1-yl)prop-2-en-1-one]
149	Cc1nnn(Cc2cc(Cl)ccc2/C=C/C(=O)N2CCCC(c3nc(C(C)C)no3)C2)n1 (single isomer, unassigned) [Example 34b, (R or S, E)-3-(4-chloro-2-((5-methyl-2H-tetrazol-2-yl)methyl)phenyl)-1-(3-(3-isopropyl-1,2,4-oxadiazol-5-yl)piperidin-1-yl)prop-2-en-1-one]
20	Cc1nnn(Cc2cc(C(F)(F)F)ccc2/C=C/C(=O)N2CCCCC2c2noc(C)n2)n1 (single isomer, unassigned) [Example 38a, (R or S, E)-1-(2-(5-Methyl-1,2,4-oxadiazol-3-yl)piperidin-1-yl)-3-(2-((5-methyl-2H-tetrazol-2-yl)methyl)-4-(trifluoromethyl)phenyl)prop-2-en-1-one]
410	Cc1nnn(Cc2cc(C(F)(F)F)ccc2/C=C/C(=O)N2CCCCC2c2noc(C)n2)n1 (single isomer, unassigned) [Example 38b, (R or S, E)-1-(2-(5-methyl-1,2,4-oxadiazol-3-yl)piperidin-1-yl)-3-(2-((5-methyl-2H-tetrazol-2-yl)methyl)-4-(trifluoromethyl)phenyl)prop-2-en-1-one]
70	Cc1nnn(Cc2cc(Cl)ccc2/C=C/C(=O)N2CCC(O)C[C@@H]2C)n1 (single isomer, unassigned) [Example 50a, (E)-3-(4-chloro-2-((5-methyl-2H-tetrazol-2-yl)methyl)phenyl)-1-((2S, 4R or 4S)-4-hydroxy-2-methylpiperidin-1-yl)prop-2-en-1-one]
79	Cc1nnn(Cc2cc(Cl)ccc2/C=C/C(=O)N2CCC(O)C[C@H]2C)n1 (single isomer, unassigned) [Example 50b, (E)-3-(4-chloro-2-((5-methyl-2H-tetrazol-2-yl)methyl)phenyl)-1-((2R, 4R or 4S)-4-hydroxy-2-methylpiperidin-1-yl)prop-2-en-1-one]
4.2	Cc1nnn(Cc2cc(Cl)ccc2/C=C/C(=O)N2CCC(C(O)c3ccc(Cl)cc3)CC2)n1 (single isomer, unassigned) [Example 66a, ((R or S), E)-3-(4-Chloro-2-((5-methyl-2H-tetrazol-2-yl)methyl)phenyl)-1-(4-((4-chlorophenyl)(hydroxy)methyl)piperidin-1-yl)prop-2-en-1-one]
4.6	Cc1nnn(Cc2cc(Cl)ccc2/C=C/C(=O)N2CCC(C(O)c3ccc(Cl)cc3)CC2)n1 (single isomer, unassigned) [Example 66b, ((R or S), E)-3-(4-Chloro-2-((5-methyl-2H-tetrazol-2-yl)methyl)phenyl)-1-(4-((4-chlorophenyl)(hydroxy)methyl)piperidin-1-yl)prop-2-en-1-one]
8.8	Cc1nnn(Cc2cc(C(F)(F)F)ccc2/C=C/C(=O)N2CCCC[C@H]2c2nnc(C)o2)n1 [Example 1, (S,E)-1-(2-(5-Methyl-1,3,4-oxadiazol-2-yl)piperidin-1-yl)-3-(2-((5-methyl-2H-tetrazol-2-yl)methyl)-4-(trifluoromethyl)phenyl)prop-2-en-1-one]
12	Cc1nnn(Cc2cc(OC(F)(F)F)ccc2/C=C/C(=O)N2CCC(c3noc(C)n3)CC2)n1 [Example 3, (E)-1-(4-(5-Methyl-1,2,4-oxadiazol-3-yl)piperidin-1-yl)-3-(2-((5-methyl-2H-tetrazol-2-yl)methyl)-4-(trifluoromethoxy)phenyl)prop-2-en-1-one]
5.8	Cc1nnn(Cc2cc(C(F)(F)F)ccc2/C=C/C(=O)N2CCC(c3noc(C)n3)CC2)n1 [Example 4, (E)-1-(4-(5-Methyl-1,2,4-oxadiazol-3-yl)piperidin-1-yl)-3-(2-((5-methyl-2H-tetrazol-2-yl)methyl)-4-(trifluoromethyl)phenyl)prop-2-en-1-one]
18	CNC(=O)[C@@H]1CCCCN1C(=O)/C=C/c1ccc(C(F)(F)F)cc1Cn1nnc(C)n1 [Example 6, (S,E)-N-Methyl-1-(3-(2-((5-methyl-2H-tetrazol-2-yl)methyl)-4-(trifluoromethyl)phenyl)acryloyl)piperidine-2-carboxamide]
140	Cc1nnn(Cc2cc(Cl)ccc2/C=C/C(=O)N2CC[C@@H](c3nnc(C)o3)C2)n1 [Example 7, (R,E)-3-(4-Chloro-2-((5-methyl-2H-tetrazol-2-yl)methyl)phenyl)-1-(3-(5-methyl-1,3,4-oxadiazol-2-yl)pyrrolidin-1-yl)prop-2-en-1-one]
378	Cc1nnn(Cc2cc(Cl)ccc2/C=C/C(=O)N2CCC[C@H]2c2nnc(C)o2)n1 [Example 8, (S,E)-3-(4-Chloro-2-((5-methyl-2H-tetrazol-2-yl)methyl)phenyl)-1-(2-(5-methyl-1,3,4-oxadiazol-2-yl)pyrrolidin-1-yl)prop-2-en-1-one]
